Test results reported in patent US20150051227A1, “PREDICTIVE BIOMARKER USEFUL FOR CANCER THERAPY MEDIATED BY A CDK INHIBITOR” (Merck Sharp & Dohme Corp., priority 2012, published 2015).

Experiments:
[1] = system: 23 lung, breast, ovarian, colorectal, and prostate cell lines; assay: 18 hour viability assay (ATP quantitation); format: cell-based; conditions: Homo sapiens, 100 nM, range over 23 cell lines, read-out: cell viability relative to DMSO-negative control
[2] = system: solid tumor xenograft panel; assay: Xenograft pharmacodynamic analysis (immunoblot of tumor lysates); format: in vivo, mice; conditions: 40 mg/kg, 6 hours post-dosing, high MCL-1:BCL-xL ratio tumors
Protocol: Each tumor was divided into three parts. Two parts were snap frozen in liquid nitrogen and stored at −80° C. The third part was preserved in 10% neutral buffered formalin for 24 hours then stored in 70% ethanol at ambient temperature. Whole cell lysates from one snap frozen part were prepared by disruption/homogenation at 4° C. in a 2 ml conical-end microfuge tube containing two stainless steel beads ( 5/32″, grade 25, Ball Supply Corp) and 0.4 ml lysis buffer [1% Triton X-100, 30 mM Tris pH 7.4, 1 mM EDTA and protease (complete, mini, EDTA-free, Roche) and phosphatase (PhosSTOP, Roche) cocktail inhibitors] using a Qiagen Lyser II, shaking at 30 Hz for 2 minutes. 200 μl of pre-chilled 3×RIPA (Cell Signaling Technology) containing protease and phosphatase cocktail inhibitors was added to the homogenate, rotated at 4° C. for 10 minutes, and microcentrifuged at 12 kpm for 10 minutes at 4° C. The supernatant was removed, normalized for protein content using a BCA kit (Pierce, Rockford, Ill.) and stored at −80° C. For Western blots, 5 μg of lysate were subjected to SDS-PAGE except for cleaved PARP analysis, which required loading of 0.5 μg of lysate.

## CCc1cnn2c(NCc3ccc[n+]([O-])c3)cc(N3CCCC[C@H]3CCO)nc12 [SCH 727965 (Dinaciclib)]
[1]
  viability at 0.1 µM: 23 to 102%
[2]
  apoptosis (cleaved PARP) in tumors: induced apoptosis
